Reference: US20160030416A1, “METHODS OF TREATING B2-BRADYKININ RECEPTOR MEDIATED ANGIOEDEMA” (SHIRE HUMAN GENETIC THERAPIES, INC., priority 2013, published 2016)
Values joined by “and” are separate entries in the source; they are usually repeats but may differ in a detail not shown here. Equal values may be shown once.

How the values were obtained:
[1] = Cross-over PK, IV and PO, cynomolgus monkeys; assay type: in vivo, male cynomolgus monkey
Experimental: A cross-over PK (pharmacokinetic) analysis was conducted in cynomolgus monkey. Two fasted male monkeys in each dose group received a single 1.0 mg/kg dose of CFMQ (HGT3711) by either IV (intravenous) or PO (oral) administration, with a 7-day washout period between each dose. The dose concentration was 1.0 mg/mL with a dose volume of 1.0 mL/kg. Blood samples were collected via the femoral vein at 0.083 (5 min), 0.25 (15 min), 0.5 (30 min), 1, 1.5, 2, 3, 4, 6, 8, 18 and 24 hours post-dose. Plasma concentrations of CFMQ (HGT3711) were determined by LC-MS/MS and concentrations below the limit of quantitation (2.5 ng/mL) were assigned a value of zero for pharmacokinetic analysis. Following oral administration of CFMQ (1 mg/kg), the concentration of CFMQ in plasma was below the limit of quantitation (BLQ=<2.5 ng/ml) at each sampling time point, preventing assessment of pharmacokinetic properties of CFMQ after oral administration in monkeys in this study. Table 11 summarizes the average PK properties for IV and PO dosed groups.

[2] = tested on: plasma extravasation; assay: Plasma extravasation (Evans blue in bladder), oral gavage, wild-type male mice; assay type: in vivo, wild-type (WT) C57/BL6 male mice; settings: for inhibition of plasma extravasation at % (compared to vehicle controls): after 64 minutes
Description: In vivo experiments in both wild-type (WT) C57BL/6J mice and C1-inhibited knock out (C1 INH KO) mice measured pharmacodynamic efficacy by the ability of CFMQ to block plasma extravasation, which is causative to edema, the most important symptom requiring treatment in HAE subjects. This plasma extravasation model has been used extensively in the literature to investigate the efficacy of bradykinin receptor antagonists. (Han et al., “Increased vascular permeability in C1 inhibitor-deficient mice mediated by the bradykinin type 2 receptor,” J Clin Invest, 2002 April; 109(8): 1057-1063.)
The uptake and effective blocking of plasma extravasation of CFMQ (HGT3711) was examined following oral administration in wild-type (WT) C57/BL6 male mice (n=4/dose group). Mice received a single oral gavage of CFMQ (HGT3711) (10 μL/g) at 3.0 or 10 mg/kg. Blood samples were taken at 20 and 60 minutes post-dose. Following oral administration CFMQ (HGT3711) administration and prior to the terminal time point, mice received an IV injection of Evans blue (EB) dye (30 mg/kg) and were sacrificed. Similar to the IV study, EB concentration in the formamide extract was determined spectrophotometrically (μg EB per milligram of tissue) and efficacy was determined by inhibiting the accumulation of EB in the bladder.

[3] = target: T1, human B2-bradykinin receptor (Homo sapiens, UniProt P30411); assay: [3H]bradykinin competition binding assay in HEK 293 cells; design: expressed in transfected cells; settings: 2 nM [3H]bradykinin, 90-minute incubation
T1 sequence (P30411 1-391): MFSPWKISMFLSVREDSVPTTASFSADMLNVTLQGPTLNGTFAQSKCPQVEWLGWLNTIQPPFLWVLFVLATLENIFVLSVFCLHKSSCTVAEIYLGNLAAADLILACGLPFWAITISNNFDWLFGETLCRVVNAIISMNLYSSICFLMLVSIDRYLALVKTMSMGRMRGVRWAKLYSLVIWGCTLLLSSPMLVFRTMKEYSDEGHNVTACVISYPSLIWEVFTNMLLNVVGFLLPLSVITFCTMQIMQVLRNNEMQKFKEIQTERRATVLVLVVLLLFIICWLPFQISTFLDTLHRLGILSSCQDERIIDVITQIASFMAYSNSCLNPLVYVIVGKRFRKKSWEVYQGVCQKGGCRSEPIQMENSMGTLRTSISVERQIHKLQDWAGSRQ
Experimental: For determination of non-specific binding 1.25 μL of a 10 mM bradykinin (BK) solution was added to 248.8 μL incubation buffer (containing 2 nM [^3H]BK). […] Appropriate controls were prepared in the same method.
Human embryonic kidney (HEK) 293 cells stably express recombinant human B2-bradykinin receptors (10 pmol/mg protein) and were added to 96-well culture-trays and cultivated for 1-3 days, followed by incubation with 100 μL of each of the incubation buffers containing [^3H]BK. After a 90-minute incubation period and washing (4×PBS (phosphate buffered saline)) supernatants of the cell mixtures were transferred to scintillation vials and assayed for [^3H]BK in a beta-counter. Results of counts per minute (cpm) for non-specific binding were subtracted from the total cpm and were used for curve fit and IC50 calculation.

[4] = Plasma kinetics, intravenous, beagle dogs; assay type: in vivo, female beagle dogs; settings: IV 1 mg/kg
Experimental: CFMQ (HGT3711) was administered to fasted female beagle dogs by a single intravenous injection at 1.0 mg/kg, formulated in 100% PEG200 (Table 10). Blood samples were taken via jugular vein puncture prior to administration and at 0.083 (5 min), 0.25 (15 min), 0.50 (30 min), 1, 4, 8 and 24 hours post dose. Plasma concentrations of CFMQ (HGT3711) were determined by LC-MS/MS and concentrations below the limit of quantitation (1.0 ng/mL) were assigned a value of zero for pharmacokinetic analysis. Nominal dosing concentrations were used in all calculations.

[5] = male, cynomolgus monkey, plasma, IV (1 mg/kg), Mean
[6] = female, beagle, dog, plasma, extrapolated to t = 0

Cc1cc(Cl)c(COc2cccc3c(-n4cc(F)cn4)cc(C)nc23)c(Cn2cccc(C#N)c2=O)n1 [CFMQ, 1-((4-Chloro-3-(((4-(4-fluoro-1H-pyrazol-1-yl)-2-methylquinolin-8-yl)oxy)methyl)-6-methylpyridin-2-yl)methyl)-2-oxo-1,2-dihydropyridine-3-carbonitrile]
Vz as fold of the total body water (0.69 L/kg) ([1]; IV 1 mg/kg): 4.32 fold
systemic clearance as % of monkey hepatic blood flow (2.62 L/hr/kg) ([1]; IV 1 mg/kg): 57.63%
ACU(0-∞) ([1]; IV (1 mg/kg), Mean): 693.99 μg/L*hr
CLz ([1]; IV (1 mg/kg), Mean, 1 mg/kg): 25.2 ± 6.83 mL/min/kg and 25.2 mL/min/kg
t1/2z ([1]; IV (1 mg/kg), Mean, 1 mg/kg): 1.40 ± 0.24 h and 1.40 h
AUC(0-t) [1, 5]: 679 ng·h/mL
Cmax [1, 5]: 410 ng/mL
Tmax [1, 5]: 0.23 h
MRT inf ([1]; male, cynomolgus monkey, plasma, IV (1 mg/kg), Mean, read-out: MRT(0-∞)): 1.77 h
Cmax ([1]; male, cynomolgus, cynomolgus monkey, plasma, IV (1 mg/kg), Mean): 410 ± 107 ng/mL
Vd ([1]; male, cynomolgus, cynomolgus monkey, plasma, IV (1 mg/kg), Mean, read-out: Vz): 2.98 ± 0.55 L/kg
concentration of CFMQ in plasma ([1]; oral 1 mg/kg, at each sampling time point (below limit of quantitation)): < 2.5 ng/mL
oral bioavailability ([1]; oral 1 mg/kg, monkey): no bioavailability
inhibition of plasma extravasation to % (compared to vehicle controls) ([2]; oral 3.0 mg/kg, 4 minutes post dose): 56%
inhibition of plasma extravasation to % (compared to vehicle controls) ([2]; oral 3.0 mg/kg, 24 minutes post dose): 58%
inhibition of plasma extravasation at % (compared to vehicle controls) ([2]; oral 3.0 mg/kg): 72%
inhibition of plasma extravasation to % (compared to vehicle controls) ([2]; oral 10 mg/kg, 4 minutes post dose): 14%
inhibition of plasma extravasation to % (compared to vehicle controls) ([2]; oral 10 mg/kg, 24 minutes post dose): 21%
inhibition of plasma extravasation at % (compared to vehicle controls) ([2]; oral 10 mg/kg): 75%
IC50 [3]: 3.3 nM
clearance as % of liver blood flow in dog (1.85 L/hr/kg) [4]: approximately 14%
AUC(0-inf) ([4]; female, beagle, dog, plasma): 5270 ng·h/mL
AUC(0-t) ([4]; female, beagle, dog, plasma): 5160 ng·h/mL
clearance ([4]; female, beagle, dog, plasma): 4.17 mL/min/kg
half-life ([4]; female, beagle, dog, plasma): 2.69 h
concentration at 0 hr ([4]; female, beagle, dog, plasma, 0 hr, read-out: Average Concentration of HGT3711): 0 ng/mL
concentration at 0.083 hr ([4]; female, beagle, dog, plasma, 0.083 hr, read-out: Average Concentration of HGT3711): 1840 ng/mL
concentration at 0.25 hr ([4]; female, beagle, dog, plasma, 0.25 hr, read-out: Average Concentration of HGT3711): 1320 ng/mL
concentration at 0.5 hr ([4]; female, beagle, dog, plasma, 0.50 hr, read-out: Average Concentration of HGT3711): 1070 ng/mL
concentration at 1 hr ([4]; female, beagle, dog, plasma, 1.0 hr, read-out: Average Concentration of HGT3711): 717 ng/mL
concentration at 4 hr ([4]; female, beagle, dog, plasma, 4.0 hr, read-out: Average Concentration of HGT3711): 377 ng/mL
concentration at 8 hr ([4]; female, beagle, dog, plasma, 8.0 hr, read-out: Average Concentration of HGT3711): 180 ng/mL
C0 [4, 6]: 2180 ng/mL
Tmax [4, 6]: 0 h
Vd ([4]; female, beagle, dog, plasma, read-out: Vss): 0.75 L/kg
